Data taken from PubChem BioAssay (NCI).
Where “and” joins values, the source holds several entries; their conditions need not be identical. Equal values may be shown once.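 48-hour exposure; five concentrations; linearly interpolated endpoints. Here, GI50 denotes the concentration required for 50% inhibition of growth. TGI marks complete inhibition of growth.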

Columns and labels:
Test in all cases: growth of human tumour cells (NCI), 48 h
HOP-92 NSCLC = system: HOP-92 NSCLC
UACC-62 melanoma = system: UACC-62 melanoma
SK-MEL-28 melanoma = system: SK-MEL-28 melanoma
CCRF-CEM leukemia = system: CCRF-CEM leukemia
OVCAR-8 ovarian = system: OVCAR-8 ovarian
NCI/ADR-RES ovarian = system: NCI/ADR-RES ovarian
MDA-MB-435 = system: MDA-MB-435
OVCAR-5 ovarian = system: OVCAR-5 ovarian
DMS 273 small cell lung = system: DMS 273 small cell lung
KM20L2 colon = system: KM20L2 colon

Row | SMILES | GI50 (HOP-92 NSCLC) | TGI (HOP-92 NSCLC) | GI50 (UACC-62 melanoma) | TGI (UACC-62 melanoma) | GI50 (SK-MEL-28 melanoma) | TGI (SK-MEL-28 melanoma) | GI50 (CCRF-CEM leukemia) | TGI (CCRF-CEM leukemia) | GI50 (OVCAR-8 ovarian) | TGI (OVCAR-8 ovarian) | GI50 (NCI/ADR-RES ovarian) | TGI (NCI/ADR-RES ovarian) | GI50 (MDA-MB-435) | TGI (MDA-MB-435) | GI50 (OVCAR-5 ovarian) | TGI (OVCAR-5 ovarian) | TGI (DMS 273 small cell lung) [µM] | TGI (KM20L2 colon) [µM]
1 | CCCCN(CCCC)CCCn1c(=O)c2c3ccccc3n(C)c2n2nnc(-c3ccccc3)c12 | 18.5 µM | 44.7 µM | 22.4 µM | 84.4 µM | > 100 µM | > 100 µM | 4.22 µM | 92 µM | 39.7 µM | > 100 µM | 14.3 µM | 67.7 µM | 39 µM | > 100 µM | 22.3 µM | > 100 µM |  | 
2 | c1ccc2c(c1)[nH]c1c2nc2ncccn21 |  | > 100 µM |  | > 100 µM |  | > 100 µM |  | > 100 µM |  | > 100 µM |  |  |  |  |  | > 100 µM | > 100 | > 100
3 | O=C1c2ccccc2C(=O)N1C/C=C/CO |  |  |  | > 100 µM |  | > 100 µM |  | > 100 µM |  | > 100 µM |  |  |  |  |  |  | > 100 | > 100
4 | CC(=O)C1(N=Nc2ccc(S(N)(=O)=O)cc2)CCOC1=O (configuration not stated) |  | > 100 µM |  | > 100 µM |  | > 100 µM |  | > 100 µM |  | > 100 µM |  | > 100 µM |  | > 100 µM |  | > 100 µM |  | 
5 | COC(=O)/C=C/c1cn(C(C)=O)c2ccc(Br)cc12 | 14.7 µM | > 60.7 µM | 30.7 µM | > 100 µM | 49 µM | > 100 µM | 1.44 µM | > 100 µM | 38.5 µM | > 100 µM | 29.4 µM | > 100 µM | 29 µM | > 100 µM | 31 µM | > 83.3 µM |  | 
6 | O=C(Nc1nc2ccc(F)cc2s1)c1cccnc1Nc1ccc(Cl)cc1 | 0.575 µM | 3.34 µM | 2.47 µM | > 100 µM | 3.47 µM | > 79.3 µM | 1.54 µM | > 100 µM | 6.26 µM | > 100 µM | 2.36 µM | > 28.1 µM | 3.11 µM | > 100 µM | 2.64 µM | > 61.1 µM |  | 
7 | Cc1cc(O)cc(C)c1/C=C/c1cncc(-c2nn[nH]n2)c1 | > 25 µM | > 25 µM | > 25 µM | > 25 µM | > 25 µM | > 25 µM | > 25 µM | > 25 µM | > 25 µM | > 25 µM | > 25 µM | > 25 µM | > 25 µM | > 25 µM | > 25 µM | > 25 µM |  | 
8 | O=S(O)CCCSSc1ccccc1 |  |  |  | > 100 µM |  | > 100 µM |  | 93.3 µM |  | > 100 µM |  |  |  |  |  | > 100 µM | > 100 | > 100
9 | CCOC(=O)/C(=C(/C)NCC(C)C)c1cc(O)c(O)c2c(C)cc(=O)[nH]c12 | 9.51 µM | 45 µM | 7.12 µM | > 100 µM | 34.7 µM | > 100 µM | 1.4 µM | 55.5 µM | 4.87 µM | > 100 µM | 2.42 µM | 95.7 µM | 5.93 µM | > 100 µM | 64.7 µM | > 100 µM |  | 
10 | O=c1oc2ccc(-n3c(=O)c4ccccc4c4ccccc4c3=O)cc2c2ccccc12 |  | 84.5 µM |  | > 100 µM |  | > 100 µM |  | > 100 µM |  | > 100 µM |  | > 100 µM |  | > 100 µM |  | > 100 µM |  | 
11 | COc1cc(-c2ncn(/C=C\C(=O)OC(C)C)n2)cc(C(F)(F)F)c1 | 0.303 µM and 0.103 µM | 4.96 µM and 5.68 µM | 0.112 µM and 0.114 µM | 2 µM and 3.42 µM | 0.0461 µM and 0.0693 µM | 2.24 µM and 8.58 µM | 0.0362 µM and 0.0446 µM | 36.1 µM and 12.5 µM | 0.045 µM and 0.031 µM | 11.4 µM and 1.41 µM | 0.0658 µM and 0.0944 µM | 11.5 µM and 12.7 µM | 0.0437 µM and 0.0485 µM | 0.702 µM and 0.457 µM | 0.196 µM and 0.154 µM | 17.3 µM and 14.8 µM |  | 
12 | O=c1c2ccccc2c2ccccc2c(=O)n1Cc1ccc2c(c1)OCO2 |  | > 100 µM |  | > 100 µM |  | > 100 µM |  | 93.2 µM |  | > 100 µM |  | > 75.7 µM |  | 55.7 µM |  | > 100 µM |  | 
13 | COc1cc(-c2nn(-c3cccc(NC(=O)c4ccc(N5CCOCC5)c(C(F)(F)F)c4)c3)cc2-c2ccncc2)ccc1Cl | 0.128 µM | 0.952 µM | 0.207 µM | 7.07 µM | 0.936 µM | > 84.8 µM | 0.236 µM | > 100 µM | 0.468 µM | > 100 µM | 0.203 µM | > 100 µM | 0.0252 µM | 0.0827 µM | 1.2 µM | > 86.4 µM |  | 
